Experimental data reported in the NIST ThermoML archive (doi:10.1016/j.jct.2015.12.018).
± gives the expanded uncertainty stated by the source.

Assay: molar enthalpy of vaporization or sublimation
Conditions: 298.15 K; Crystal; Static calorimetry

## O=C1OC(=O)c2ccccc21 [isobenzofuran-1,3-dione]
  molar enthalpy: 21 ± 1.12 kcal/mol

## O=C1OCc2ccccc21 [1(3H)-isobenzofuranone]
  molar enthalpy: 21.1 ± 1.05 kcal/mol
